Data from the supplement of paper PMC10627819.

What was measured:
Assay in all cases: Bliss interaction score (quartile over a dose matrix) (fitness difference); higher = more antagonism (negative = synergy)
B. subtilis 168 = test system: B. subtilis 168
In short: (§1)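 Quartiles summarise the Bliss score over technical, biological and donor/recipient replicates, where the score is observed minus expected fitness under a product model. Expected fitness uses single-drug values inferred from combination data. Fitness is OD595 at entry into stationary phase over the plate's robust no-drug mean, capped at 1.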

S. aureus DSM 20231 = test system: S. aureus DSM 20231
In short: as §1

S. pneumoniae D39V = test system: S. pneumoniae D39V
In short: as §1

S. aureus Newman = test system: S. aureus Newman
In short: as §1
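Further: first quartile when negative (synergy) and third quartile when positive (antagonism).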

Row | SMILES | Bliss interaction score (B. subtilis 168) | Bliss interaction score (S. aureus DSM 20231) | Bliss interaction score (S. pneumoniae D39V) | Bliss interaction score (S. aureus Newman)
1 | CN[C@H](CC(C)C)C(=O)N[C@H]1C(=O)N[C@@H](CC(N)=O)C(=O)N[C@H]2C(=O)N[C@H]3C(=O)N[C@H](C(=O)N[C@H](C(=O)O)c4cc(O)cc(O)c4-c4cc3ccc4O)[C@H](O[C@H]3C[C@](C)(N)[C@@H](O)[C@H](C)O3)c3ccc(c(Cl)c3)Oc3cc2cc(c3O[C@@H]2O[C@H](CO)[C@@H](O)[C@H](O)[C@H]2O[C@H]2C[C@](C)(NCc3ccc(-c4ccc(Cl)cc4)cc3)[C@@H](O)[C@H](C)O2)Oc2ccc(cc2Cl)[C@H]1O [Oritavancin] + CN[C@H](CC(C)C)C(=O)N[C@H]1C(=O)N[C@@H](CC(N)=O)C(=O)N[C@H]2C(=O)N[C@H]3C(=O)N[C@H](C(=O)N[C@H](C(=O)O)c4cc(O)cc(O)c4-c4cc3ccc4O)[C@H](O)c3ccc(c(Cl)c3)Oc3cc2cc(c3O[C@@H]2O[C@H](CO)[C@@H](O)[C@H](O)[C@H]2O[C@H]2C[C@](C)(N)[C@H](O)[C@H](C)O2)Oc2ccc(cc2Cl)[C@H]1O [Vancomycin] | 0.0254 | -0.0879 | 0.105 | -0.0787
2 | CN[C@H](CC(C)C)C(=O)N[C@H]1C(=O)N[C@@H](CC(N)=O)C(=O)N[C@H]2C(=O)N[C@H]3C(=O)N[C@H](C(=O)N[C@H](C(=O)O)c4cc(O)cc(O)c4-c4cc3ccc4O)[C@H](O[C@H]3C[C@](C)(N)[C@@H](O)[C@H](C)O3)c3ccc(c(Cl)c3)Oc3cc2cc(c3O[C@@H]2O[C@H](CO)[C@@H](O)[C@H](O)[C@H]2O[C@H]2C[C@](C)(NCc3ccc(-c4ccc(Cl)cc4)cc3)[C@@H](O)[C@H](C)O2)Oc2ccc(cc2Cl)[C@H]1O [Oritavancin] + CO[C@H]1/C=C/O[C@@]2(C)Oc3c(C)c(O)c4c(O)c(c(/C=N/N5CCN(C)CC5)c(O)c4c3C2=O)NC(=O)/C(C)=C\C=C\[C@H](C)[C@H](O)[C@@H](C)[C@@H](O)[C@@H](C)[C@H](OC(C)=O)[C@@H]1C [Rifampicin] | -0.0184 | -0.0199 | 0.106 | 0.0357
3 | CN[C@H](CC(C)C)C(=O)N[C@H]1C(=O)N[C@@H](CC(N)=O)C(=O)N[C@H]2C(=O)N[C@H]3C(=O)N[C@H](C(=O)N[C@H](C(=O)O)c4cc(O)cc(O)c4-c4cc3ccc4O)[C@H](O[C@H]3C[C@](C)(N)[C@@H](O)[C@H](C)O3)c3ccc(c(Cl)c3)Oc3cc2cc(c3O[C@@H]2O[C@H](CO)[C@@H](O)[C@H](O)[C@H]2O[C@H]2C[C@](C)(NCc3ccc(-c4ccc(Cl)cc4)cc3)[C@@H](O)[C@H](C)O2)Oc2ccc(cc2Cl)[C@H]1O [Oritavancin] + COc1cc(Cc2cnc(N)nc2N)cc(OC)c1OC [Trimethoprim] | 0.0391 | -0.0406 | 0.078 | -0.111
4 | CN[C@H](CC(C)C)C(=O)N[C@H]1C(=O)N[C@@H](CC(N)=O)C(=O)N[C@H]2C(=O)N[C@H]3C(=O)N[C@H](C(=O)N[C@H](C(=O)O)c4cc(O)cc(O)c4-c4cc3ccc4O)[C@H](O[C@H]3C[C@](C)(N)[C@@H](O)[C@H](C)O3)c3ccc(c(Cl)c3)Oc3cc2cc(c3O[C@@H]2O[C@H](CO)[C@@H](O)[C@H](O)[C@H]2O[C@H]2C[C@](C)(NCc3ccc(-c4ccc(Cl)cc4)cc3)[C@@H](O)[C@H](C)O2)Oc2ccc(cc2Cl)[C@H]1O [Oritavancin] + COc1ccc(C[C@H](N)C(=O)N[C@H]2[C@@H](O)[C@H](n3cnc4c(N(C)C)ncnc43)O[C@@H]2CO)cc1 [Puromycin] | 0.0232 | -0.0699 | 0.0762 | -0.0754
5 | CN[C@H](CC(C)C)C(=O)N[C@H]1C(=O)N[C@@H](CC(N)=O)C(=O)N[C@H]2C(=O)N[C@H]3C(=O)N[C@H](C(=O)N[C@H](C(=O)O)c4cc(O)cc(O)c4-c4cc3ccc4O)[C@H](O[C@H]3C[C@](C)(N)[C@@H](O)[C@H](C)O3)c3ccc(c(Cl)c3)Oc3cc2cc(c3O[C@@H]2O[C@H](CO)[C@@H](O)[C@H](O)[C@H]2O[C@H]2C[C@](C)(NCc3ccc(-c4ccc(Cl)cc4)cc3)[C@@H](O)[C@H](C)O2)Oc2ccc(cc2Cl)[C@H]1O [Oritavancin] + C[n+]1ccc(-c2cc[n+](C)cc2)cc1 [Paraquat] | -0.0221 | -0.0738 | -0.044 | -0.065
